This note sets out measurements from patent US20250051732A1, “KIDNEY-ON-A-CHIP COMPRISING RENAL TUBULE CULTURE PART AND INTERSTITIUM CULTURE PART” (Seoul National University Hospital, priority 2021, published 2025).

What all share (assay type): cell-based, human
In assay [1] the test system is vascular endothelial cells (GFP-HUVEC) in interstitium culture part. The experiment in a line: Renal fibrosis-on-a-chip: degree of angiogenesis (length and diameter of blood vessels, ImageJ). The following applies: 24 hours. How it is done: Through comparative analysis of an organ-on-a-chip mimicking normal kidney tissue and an organ-on-a-chip mimicking renal fibrosis, evaluation indices for screening for renal fibrosis therapeutic agents were deduced in the following manner. At this time, human-derived renal fibroblasts, vascular endothelial cells (GFP-HUVEC), and renal tubular epithelial cells were seeded in the kidney-on-a-chip (FIG. 12A) manufactured in Example 3 in the same manner as in A. of Example 3, and cultured to manufacture a kidney-on-a-chip. However, two types of renal fibroblasts of renal fibroblasts derived from normal kidney tissue (hereinafter referred to as normal kidney-on-a-chip) and renal fibroblasts derived from renal fibrosis kidney tissue (hereinafter referred to as renal fibrosis-on-a-chip) were used as the renal fibroblasts to manufacture two types of kidney-on-chips.
The two types of kidney-on-chips were divided into the control group (control in FIGS. 13A to 13D) in which each of the two types of kidney-on-chips was not treated with TGF-β and the TGF-β group (TGF β in FIGS. 13A to 13D) in which each of the two types of kidney-on-chips was treated with TGF-β unlike Example 3, and immunofluorescence staining was performed in the same manner as in B. of Example 3. At this time, the renal tubular epithelial cells in the renal tubule culture part of each kidney-on-a-chip were treated with CCK8 antibody and α-SMA antibody, respectively, their fluorescence expression was photographed using a confocal microscope (MICROSCOPE CONFOCAL LASER SCANNING ZEISS LSM 710), the mean fluorescence intensity of each image was measured using the analysis program of the confocal microscope, then the result values of CCK8 and α-SMA measured for each group were compared to the values for the control group (control) to comparatively analyze the difference in expression levels, and the results are as illustrated in FIGS. 13A to 13D.
It is more reasonable to compare the kidney-on-a-chip of Example 3 to the pathological tissue of a patient from which kidney cells were obtained rather than comparing the kidney-on-a-chip to a laboratory animal model of renal fibrosis, so the evaluation indices for screening for renal fibrosis therapeutic agents were deduced by manufacturing a kidney-on-a-chip and performing comparative analysis in the same manner as in Experimental Example 1. […] In this experiment, three types of kidney-on-chips were manufactured: the control group (control in FIGS. 15 to 20) not treated with TGF-β, the TGF-β group (TGF β in FIGS. 15 to 20) treated with TGF-β in Experimental Example 1, and a TGF-β inhibition group (TGF β inhibitor in FIGS. 15 to 20) that was treated with TGF-β at 5 ng/ml and a TGF-β inhibitor at 10 μM and reacted for 24 hours.
For the three types of kidney-on-chips of the control group, the TGF-β group, and the TGF-β inhibition group, vascular endothelial cells (GFP-HUVEC) present in the vascular endothelial cell region of the interstitium culture part were photographed using a confocal microscope (MICROSCOPE CONFOCAL LASER SCANNING ZEISS LSM 710). […] The result values measured for each of the control group, TGF-β group, and TGF-β inhibition group were compared to the values for the control group according to each index to comparatively analyze the length and diameter of thin blood vessels and the length and diameter of thick blood vessels, and the results are as illustrated in FIGS. 17 to 18.

The test system of assay [2] is renal tubular epithelial cells (HK-2 cells) in renal fibrosis-on-a-chip. The experiment in a line: Renal fibrosis-on-a-chip: CCK8 and α-SMA immunofluorescence in renal tubule culture part. The conditions noted are these: 24 hours. How it is done:
(§1) Specifically, vascular endothelial cells (GFP-HUVEC) at 2000×10^4/ml and fibrin gel at 10 mg/ml were seeded in the vascular endothelial cell region (yellow region in FIG. 12B, Gel A) of the interstitium culture part of the kidney-on-a-chip manufactured above as 1 in FIG. 12C and cultured at room temperature for 2 to 3 minutes. Next, primary human renal fibroblasts derived from a patient with renal failure at 400×10^4/ml and fibrin gel at 10 mg/ml were seeded in the renal fibroblast region (red region in FIG. 12B, Gel C) of the interstitium culture part of the kidney-on-a-chip manufactured above as 2 in FIG. 12C and cultured at room temperature for 2 to 3 minutes. Afterwards, 5 to 10 μl of the human renal tubular epithelial cell (Human Kidney-2 cell, HK-2 cell) suspension at 300×10^4/ml was seeded in the renal tubule culture part (blue region in FIG. 12B, Gel B) of the kidney-on-a-chip as 3 in FIG. 12C, tilted 90° in the desired direction (upward in this experiment), and cultured at 37° C. for 30 minutes. After culture, each region of the kidney-on-a-chip was filled with 150 μl of the same medium as that in A. of Example 2-2. The renal tubular epithelial cells, vascular endothelial cells, renal fibroblasts and the like were seeded, cultured for 3 days, then treated with TGF-β at 5 ng/ml and TGF-β at 5 ng/ml and a TGF-β inhibitor at 10 μM, respectively, and reacted for 24 hours.
The following immunofluorescence staining was performed to examine whether the kidney-on-a-chip manufactured above normally mimics a living body. Cells in each of the renal tubule culture part and interstitium culture part of the kidney-on-a-chip were fixed with 4% paraformaldehyde fixative (Biosesang, #P2031) at room temperature for 20 minutes, washed with 1×PBS, then treated with 0.2% Triton-X (Sigma, #T9284), and cultured at room temperature for 20 minutes. The cells were then treated with 3% BSA, reacted at room temperature for 40 minutes, and then washed with 1×PBS. Next, the cells were treated with primary antibodies (α-SMA antibody (diluted at 1:100) for renal fibroblasts and cytokeratin 8 (CCK8) antibody (diluted at 1:200) for renal tubular epithelial cells) diluted with 1% BSA, reacted at room temperature for 2 days, and washed again with 1×PBS. After washing, the cells were treated with secondary antibodies against each marker diluted with 1% BSA at 1:100 and the antibody Hoechst diluted with 1% BSA at 1:250, reacted at room temperature for 3 hours, washed again with 1×PBS, and then photographed using a confocal microscope, and the results are illustrated in FIG. 12D. […]

Assay [3] has as its system vascular endothelial growth factor (VEGF). The experiment in a line: Renal fibrosis-on-a-chip: VEGF real-time PCR. The following applies: two renal fibrosis-on-chips (patients GFP >90, 60 to 90), TGF-β 5 ng/ml alone or with TGF-β inhibitor 10 μM, 24 hours, FIG. 20. How it is done:
An experiment was performed in the same manner as in Experimental Example 3-1, but real-time PCR was performed to examine whether the vascular endothelial growth factor (VEGF) can be used as an evaluation index.
Specifically, for each of the control group, TGF-β group, and TGF-β inhibition group of each of the two types of kidney-on-chips manufactured from a patient with GFP >90 and a patient with GFP 60 to 90 in Experimental Example 3-1, RNA was isolated from all of the renal tubular epithelial cells (HK-2 cells), fibroblasts, and vascular endothelial cells (GFP-HUVEC) co-cultured in each kidney-on-a-chip, cDNA was synthesized from this according to a method known in the art and mixed with VEGF primers and SYBER green, and the expression level of VEGF was measured using real-time PCR equipment (REAL TIME PCR SYSTEM, Applied Biosystems ViiA7). After measurement, the result values for each group measured using the equipment were compared to the values for the control group of each of the […] of kidney-on-chips to comparatively analyze the difference in expression level of VEGF, and the results are as illustrated in FIG. 20.
Background: Real-time PCR tracks product formation cycle by cycle.

For assay [4], the system named is kidney injury molecule-1 (KIM-1). The experiment in a line: Renal fibrosis-on-a-chip: KIM-1 ELISA of culture solution. The conditions noted are these: three renal fibrosis-on-chips (patients GFP >90, 60 to 90, <60), TGF-β 5 ng/ml alone or with TGF-β inhibitor 10 μM, 24 hours, FIG. 19. How it is done:
An experiment was performed in the same manner as in Experimental Example 2, but enzyme-linked immunosorbent assay (ELISA assay) was performed to examine whether kidney injury molecule-1 (KIM-1) could be used as an evaluation index.
Specifically, renal fibroblasts obtained from each of three patients having GFP >90, GFP 60 to 90, and GFP <60 and purchased vascular endothelial cells (GFP-HUVEC) and renal tubular epithelial cells (HK-2 cells) were co-cultured in the vascular endothelial cell medium in the same manner as in Experimental Example 1 to manufacture three types of kidney-on-chips. Next, the medium was collected for each of the control group, TGF-β group, and TGF-β inhibition group of each of the three types of kidney-on-chips, the medium of each group was diluted at an appropriate ratio, and then ELISA analysis was performed according to the instructions of the KIM-1 (human) ELISA kit (Enzo Life Sciences, Inc, #ADI-900-226-0001). Afterwards, the result values for each group were measured at 450 nm using ELISA READER (SPECTRAMAX PLUS384), each measured result value was compared to the value for the control group of each of the three types of kidney-on-chips to comparatively analyze the difference in expression level of KIM-1, and the results are as illustrated in FIG. 19.

The test system of assay [5] is normal kidney-on-a-chip (renal tubular epithelial cells (HK-2 cells), renal fibroblasts derived from normal kidney tissue, GFP-HUVEC). The experiment in a line: Normal kidney-on-a-chip, TGF-β stimulation: CCK8 and α-SMA immunofluorescence and blood vessels. The conditions noted are these: TGF-β 5 ng/ml, 24 hours. How it is done:
as §1
The following immunofluorescence staining was performed to examine whether the kidney-on-a-chip manufactured above normally mimics a living body. Cells in each of the renal tubule culture part and interstitium culture part of the kidney-on-a-chip were fixed with 4% paraformaldehyde fixative (Biosesang, #P2031) at room temperature for 20 minutes, washed with 1×PBS, then treated with 0.2% Triton-X (Sigma, #T9284), and cultured at room temperature for 20 minutes. The cells were then treated with 3% BSA, reacted at room temperature for 40 minutes, and then washed with 1×PBS. […]

The mark [6] stands for this setting: renal fibrosis-on-a-chip (Experimental Example 1), renal tubular epithelial cell region, TGF-β 5 ng/ml, vs control, FIG. 13C, 13D.
[7] abbreviates: three renal fibrosis-on-chips (patients GFR >90, 60-90, <60), TGF-β 5 ng/ml alone or with TGF-β inhibitor 10 μM, FIG. 15, 16.
[8] abbreviates: renal tubular epithelial cell region, vs control, FIG. 13A, 13B.

In the case of transforming growth factor-β [TGF-β], the “number of thin blood vessels” value in assay [1] (renal fibrosis-on-a-chip (Experimental Example 1), vascular endothelial cell region, TGF-β 5 ng/ml) was “increased”; in assay [5] (vascular endothelial cell region of interstitium culture part), “increased”. Further, the “total length of thick blood vessels (50 μm or more)” value in assay [1] (three renal fibrosis-on-chips, TGF-β 5 ng/ml alone or with TGF-β inhibitor 10 μM, FIG. 17A) is on record as “decreased”. Further, the “diameter of thick blood vessels” value in assay [1] (three renal fibrosis-on-chips, TGF-β 5 ng/ml alone or with TGF-β inhibitor 10 μM, FIG. 17B) is listed as “decreased”. In addition, in assay [1] (three renal fibrosis-on-chips, TGF-β 5 ng/ml alone or with TGF-β inhibitor 10 μM, FIG. 18A), the “total length of thin blood vessels (less than 50 μm)” value was “increased”. In assay [1] (three renal fibrosis-on-chips, TGF-β 5 ng/ml alone or with TGF-β inhibitor 10 μM, FIG. 18B), the “diameter of thin blood vessels” value is listed as “decreased”. For the same substance, the “expression level of CCK8” value in assay [2] (setting [6]), in assay [2] (setting [7]) and in assay [5] (setting [8]) was “decreased” throughout. The “expression level of α-SMA” value in assay [2] (setting [6]), in assay [2] (setting [7]) and in assay [5] (setting [8]) was “increased” each time. The “expression level of VEGF” value in assay [3] is recorded as “increased”. In addition, the “expression level of KIM-1 in the culture solution” value in assay [4] is “increased”.
